From PMC10438916 (Results in chemistry, 2022)
In brackets after ≈: the same amount, converted by molar mass.

What was measured:
[1] = molecular target: T1, human sEH (Homo sapiens, UniProt P34913); experiment: Determination of inhibitory potency; assay type: biochemical; details: read-out: Human sEH IC50; recombinant affinity purified human sEH, means of three separate experiments
T1 sequence (P34913 1-555): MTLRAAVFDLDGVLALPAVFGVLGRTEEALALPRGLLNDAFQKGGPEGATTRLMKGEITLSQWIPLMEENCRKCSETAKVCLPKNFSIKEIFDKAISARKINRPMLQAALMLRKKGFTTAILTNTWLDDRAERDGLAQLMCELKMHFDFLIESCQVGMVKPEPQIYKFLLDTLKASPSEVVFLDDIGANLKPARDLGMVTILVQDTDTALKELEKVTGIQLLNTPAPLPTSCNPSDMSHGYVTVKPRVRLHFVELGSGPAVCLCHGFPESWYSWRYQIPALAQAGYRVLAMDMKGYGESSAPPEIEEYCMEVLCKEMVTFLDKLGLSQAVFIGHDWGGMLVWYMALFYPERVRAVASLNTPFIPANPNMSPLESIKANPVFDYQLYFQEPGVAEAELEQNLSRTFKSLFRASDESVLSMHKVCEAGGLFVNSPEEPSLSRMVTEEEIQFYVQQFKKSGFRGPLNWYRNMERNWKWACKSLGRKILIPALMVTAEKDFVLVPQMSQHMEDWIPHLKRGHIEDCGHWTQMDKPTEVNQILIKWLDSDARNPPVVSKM

[2] = Solubility by turbidimetric assay in sodium phosphate buffer; assay type: physicochemical; details: sodium phosphate buffer pH 7.4, 0.1 M, 1% DMSO

Compound	IC50 [1] [nM]	Solubility [2] [µM]
CC1(C)C2CCC1(C)C(NC(=O)Nc1cccc(F)c1)C2 (racemic) [L/D-3a, rac-1-(3-fluorophenyl)-3-(1,7,7-trimethylbicyclo[2.2.1]heptan-2-yl)urea]	1.5	50 ± 10 (≈ 14.5 µg/mL)
CC1(C)C2CCC1(C)C(NC(=O)Nc1ccc(F)cc1)C2 (racemic) [L/D-3b, rac-1-(4-fluorophenyl)-3-(1,7,7-trimethylbicyclo[2.2.1]heptan-2-yl)urea]	5.1	65 ± 15 (≈ 18.9 µg/mL)
CC1(C)C2CCC1(C)C(NC(=O)Nc1ccccc1Cl)C2 (racemic) [L/D-3c, rac-1-(2-chlorophenyl)-3-(1,7,7-trimethylbicyclo[2.2.1]heptan-2-yl)urea]	85	30 ± 10 (≈ 9.21 µg/mL)
CC1(C)C2CCC1(C)C(NC(=O)Nc1cccc(Cl)c1)C2 (racemic) [L/D-3d, rac-1-(3-chlorophenyl)-3-(1,7,7-trimethylbicyclo[2.2.1]heptan-2-yl)urea]	1.6	35 ± 15 (≈ 10.7 µg/mL)
CC1(C)C2CCC1(C)C(NC(=S)Nc1cccc(F)c1)C2 (racemic) [L/D-3e, rac-1-(3-fluorophenyl)-3-(1,7,7-trimethylbicyclo[2.2.1]heptan-2-yl)thiourea]	126	10 ± 5 (≈ 3.06 µg/mL)
CC1(C)C2CCC1(C)C(NC(=S)Nc1ccc(F)cc1)C2 (racemic) [L/D-3f, rac-1-(4-fluorophenyl)-3-(1,7,7-trimethylbicyclo[2.2.1]heptan-2-yl)thiourea]	33.5	15 ± 5 (≈ 4.6 µg/mL)
CC1(C)C2CCC1(C)C(NC(=O)Nc1cccc(F)c1)C2 [Compound D-3a, D-1-(3-fluorophenyl)-3-(1,7,7-trimethylbicyclo[2.2.1]heptan-2-yl)urea]	2.8	50 ± 10 (≈ 14.5 µg/mL)
CC1(C)C2CCC1(C)C(NC(=O)Nc1ccc(F)cc1)C2 [Compound D-3b, D-1-(4-fluorophenyl)-3-(1,7,7-trimethylbicyclo[2.2.1]heptan-2-yl)urea]	8.2	65 ± 15 (≈ 18.9 µg/mL)
CC1(C)C2CCC1(C)C(NC(=O)Nc1ccccc1Cl)C2 [Compound D-3c, D-1-(2-chlorophenyl)-3-(1,7,7-trimethylbicyclo[2.2.1]heptan-2-yl)urea]	69.6	30 ± 10 (≈ 9.21 µg/mL)
CC1(C)C2CCC1(C)C(NC(=O)Nc1cccc(Cl)c1)C2 [Compound D-3d, D-1-(3-chlorophenyl)-3-(1,7,7-trimethylbicyclo[2.2.1]heptan-2-yl)urea]	1.7	35 ± 15 (≈ 10.7 µg/mL)
CC1(C)C2CCC1(C)C(NC(=S)Nc1cccc(F)c1)C2 [Compound D-3e, D-1-(3-fluorophenyl)-3-(1,7,7-trimethylbicyclo[2.2.1]heptan-2-yl)thiourea]	176	10 ± 5 (≈ 3.06 µg/mL)
CC1(C)C2CCC1(C)C(NC(=S)Nc1ccc(F)cc1)C2 [Compound D-3f, D-1-(4-fluorophenyl)-3-(1,7,7-trimethylbicyclo[2.2.1]heptan-2-yl)thiourea]	38.3	15 ± 5 (≈ 4.6 µg/mL)
CC12CCC(C1)C(C)(C)C2NC(=O)Nc1cccc(F)c1 [Compound D-6a, D-1-(3-fluorophenyl)-3-(1,3,3-trimethylbicyclo[2.2.1]heptan-2-yl)urea]	230	45 ± 10 (≈ 13.1 µg/mL)
CC12CCC(C1)C(C)(C)C2NC(=O)Nc1ccc(F)cc1 [Compound D-6b, D-1-(4-fluorophenyl)-3-(1,3,3-trimethylbicyclo[2.2.1]heptan-2-yl)urea]	367	65 ± 15 (≈ 18.9 µg/mL)
CC12CCC(C1)C(C)(C)C2NC(=O)Nc1ccccc1Cl [Compound D-6c, D-1-(2-chlorophenyl)-3-(1,3,3-trimethylbicyclo[2.2.1]heptan-2-yl)urea]	4810	40 ± 10 (≈ 12.3 µg/mL)
CC12CCC(C1)C(C)(C)C2NC(=O)Nc1cccc(Cl)c1 [Compound D-6d, D-1-(3-chlorophenyl)-3-(1,3,3-trimethylbicyclo[2.2.1]heptan-2-yl)urea]	111	40 ± 10 (≈ 12.3 µg/mL)
CC12CCC(C1)C(C)(C)C2NC(=S)Nc1cccc(F)c1 [Compound D-6e, D-1-(3-fluorophenyl)-3-(1,3,3-trimethylbicyclo[2.2.1]heptan-2-yl)thiourea]	6480	10 ± 5 (≈ 3.06 µg/mL)
CC12CCC(C1)C(C)(C)C2NC(=S)Nc1ccc(F)cc1 [Compound D-6f, D-1-(4-fluorophenyl)-3-(1,3,3-trimethylbicyclo[2.2.1]heptan-2-yl)thiourea]	6080	15 ± 5 (≈ 4.6 µg/mL)
CC1(C)C2CCC1(C)C(NC(=O)Nc1cccc(F)c1)C2 [Compound L-3a, L-1-(3-fluorophenyl)-3-(1,7,7-trimethylbicyclo[2.2.1]heptan-2-yl)urea]	0.7	50 ± 10 (≈ 14.5 µg/mL)
CC1(C)C2CCC1(C)C(NC(=O)Nc1ccc(F)cc1)C2 [Compound L-3b, L-1-(4-fluorophenyl)-3-(1,7,7-trimethylbicyclo[2.2.1]heptan-2-yl)urea]	4	65 ± 15 (≈ 18.9 µg/mL)
CC1(C)C2CCC1(C)C(NC(=O)Nc1ccccc1Cl)C2 [Compound L-3c, L-1-(2-chlorophenyl)-3-(1,7,7-trimethylbicyclo[2.2.1]heptan-2-yl)urea]	387	30 ± 10 (≈ 9.21 µg/mL)
CC1(C)C2CCC1(C)C(NC(=O)Nc1cccc(Cl)c1)C2 [Compound L-3d, L-1-(3-chlorophenyl)-3-(1,7,7-trimethylbicyclo[2.2.1]heptan-2-yl)urea]	1.5	35 ± 15 (≈ 10.7 µg/mL)
CC1(C)C2CCC1(C)C(NC(=S)Nc1cccc(F)c1)C2 [Compound L-3e, L-1-(3-fluorophenyl)-3-(1,7,7-trimethylbicyclo[2.2.1]heptan-2-yl)thiourea]	56.1	10 ± 5 (≈ 3.06 µg/mL)
CC1(C)C2CCC1(C)C(NC(=S)Nc1ccc(F)cc1)C2 [Compound L-3f, L-1-(4-fluorophenyl)-3-(1,7,7-trimethylbicyclo[2.2.1]heptan-2-yl)thiourea]	31	15 ± 5 (≈ 4.6 µg/mL)
CC12CCC(C1)C(C)(C)C2NC(=O)Nc1cccc(F)c1 [Compound L-6a, L-1-(3-fluorophenyl)-3-(1,3,3-trimethylbicyclo[2.2.1]heptan-2-yl)urea]	221	45 ± 10 (≈ 13.1 µg/mL)
CC12CCC(C1)C(C)(C)C2NC(=O)Nc1ccc(F)cc1 [Compound L-6b, L-1-(4-fluorophenyl)-3-(1,3,3-trimethylbicyclo[2.2.1]heptan-2-yl)urea]	412	65 ± 15 (≈ 18.9 µg/mL)
CC12CCC(C1)C(C)(C)C2NC(=O)Nc1ccccc1Cl [Compound L-6c, L-1-(2-chlorophenyl)-3-(1,3,3-trimethylbicyclo[2.2.1]heptan-2-yl)urea]	1470	40 ± 10 (≈ 12.3 µg/mL)
CC12CCC(C1)C(C)(C)C2NC(=O)Nc1cccc(Cl)c1 [Compound L-6d, L-1-(3-chlorophenyl)-3-(1,3,3-trimethylbicyclo[2.2.1]heptan-2-yl)urea]	166	40 ± 10 (≈ 12.3 µg/mL)
CC12CCC(C1)C(C)(C)C2NC(=S)Nc1cccc(F)c1 [Compound L-6e, L-1-(3-fluorophenyl)-3-(1,3,3-trimethylbicyclo[2.2.1]heptan-2-yl)thiourea]	2980	10 ± 5 (≈ 3.06 µg/mL)
CC12CCC(C1)C(C)(C)C2NC(=S)Nc1ccc(F)cc1 [Compound L-6f, L-1-(4-fluorophenyl)-3-(1,3,3-trimethylbicyclo[2.2.1]heptan-2-yl)thiourea]	4230	15 ± 5 (≈ 4.6 µg/mL)
